Results as given in PMC6680510, “Benzotriazine Di-Oxide Prodrugs for Exploiting Hypoxia and Low Extracellular pH in Tumors” (Molecules, 2019).
Where two headings read alike, the source gives them in different places.

Key:
[1] = tested on: UT-SCC-74B cells; assay: IC50 assay (inhibition of proliferation, 4 h exposure, SRB); type: cell-based; settings: UT-SCC-74B, UT-SCC-74B; for IC50: Homo sapiens, 4 h
Procedure: Cells were seeded in 96-well plates (SiHa or FaDu 1500 cells/well, UT-SCC-74B 800 cells/well) in 100 μL. After incubation for 2 h, the drugs were added in 50 μL of the same titrated medium at 3× the final concentration to duplicate the wells. After a further 4 h the plates were checked for drug precipitation using a phase contrast microscope, then drugs were removed by aspirating and washing with the standard (pH 7.4) medium, then aspirating again and adding 150 μL of the medium. Cultures were then grown for 5 days before staining with sulphorhodamine B and measuring absorbance, with the estimation of IC50 values using 4-parameter logistic regression, as previously carried out.
The medium and plasticware was equilibrated in the chamber for 3 days prior to use. In the anoxia experiments, FaDu cells were plated in poly-L-lysine coated plates (Corning Cat # 356461) to improve attachment. […]
Footnotes: a Number of experiments. b Anoxic cytotoxicity ratio = oxic IC50/anoxic IC50. c pH
cytotoxicity ratio = IC50 at pHe 7.4/ IC50 at pHe 6.5. d Overall ratio = oxic IC50 pHe 7.4 / anoxic IC50 pHe
6.5. Values are means and errors are SEM. For ratios, the errors are root mean square SEM. […]

[2] = tested on: SiHa cells; assay: as above; settings: SiHa; for IC50: Homo sapiens, 4 h
How it was run: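 Cells exposed to compound for 4 h in titrated medium, then washed and regrown 5 days under standard conditions (oxia, pHe 7.4). Growth read by sulforhodamine B staining; IC50 from 4-parameter logistic regression of duplicate cultures.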

[3] = tested on: FaDu cells; assay: as above; type: cell-based; settings: for IC50: Homo sapiens, 4 h
Procedure: (§1) Cells were seeded in 96-well plates (SiHa or FaDu 1500 cells/well, UT-SCC-74B 800 cells/well) in 100 μL. After incubation for 2 h, the drugs were added in 50 μL of the same titrated medium at 3× the final concentration to duplicate the wells. After a further 4 h the plates were checked for drug precipitation using a phase contrast microscope, then drugs were removed by aspirating and washing with the standard (pH 7.4) medium, then aspirating again and adding 150 μL of the medium. Cultures were then grown for 5 days before staining with sulphorhodamine B and measuring absorbance, with the estimation of IC50 values using 4-parameter logistic regression, as previously carried out [85].

[4] = tested on: SiHa and FaDu cells; assay: IC50 assay, summary statements over both cell lines; type: cell-based; settings: read-out: Potency (IC50) under anoxia at pHe 6.5
Procedure: as §1

[5] = tested on: MDCK-II cells with forced expression of BCRP or Pgp; assay: IC50 under anoxia in cells with forced expression of efflux transporters; settings: MDCK-II cell lines under anoxia, preliminary experiments
Procedure: expression of BCRP or Pgp.
Cells were seeded at 300 cells/well in DMEM with 10% FBS in 96 well plates in an
anaerobic chamber, allowed to attach for 2 h then exposed to drugs for 4 h under anoxia. Cells were
then washed with fresh medium and grown for 5 days under aerobic conditions before staining with
SRB. Values are mean ± SEM from 2 separate experiments.

[6] = tested on: SiHa and SiHa/POR cells; assay: IC50 in SiHa versus SiHa/POR cultures under anoxia; type: cell-based; settings: 4 h under anoxia, pHe 7.4
Procedure: The lack of effect of POR over-expression on the reductive metabolism of the BTO acids in intact cells led us to compare the cytotoxicities of SN30000 (2), 4a, and 7a in SiHa/POR, and the parental line, under anoxia (Figure 6).
Drug exposure was for 4 h under anoxia, at pHe 7.4, with regrowth under aerobic conditions for 5 days before staining with SRB. Values are means and SEM for the two experiments, each with triplicate cultures at each drug concentration. TEXT PRINTED IN THE PICTURE: Cmpd 2: Ratio 6.75 ± 0.20 | Cmpd 4a: Ratio 3.40 ± 0.22 | Cmpd 7a: Ratio 2.67 ± 0.46

[7] = set-up: method as in PMID 24737463; settings: cited from earlier work
[8] = tested on: SiHa cells; assay: Cellular uptake in stirred aerobic single cell suspensions (HPLC, 3H-mannitol correction)
Procedure: In these experiments, cell pellets were collected by centrifugation and ^3H-mannitol was used as a cell-excluded marker to enable correction for the entrapped extracellular medium.
Log-phase cultures were dissociated with trypsin/EDTA, followed by the addition of the medium with DNAase I (Sigma DN-25) at 100 μg/mL for 5 min at 37 °C to minimize clumping. The cell pellets were collected by centrifugation and resuspended in αMEM with 5% FBS at pH 7.4 or 6.5 to 2 × 10^6 cells/mL. Samples (12 mL) were equilibrated with magnetic stirring at 37 °C under flowing humidified 5% CO2/air or N2 (50–100 mL/min), as previously described [86]. After equilibration for 60 min, the compounds were added in 50 μL of DMSO. The samples (5 mL) were withdrawn 5 and 60 min later, where the cell pellets were then collected by centrifugation and 4 mL of the supernatant was discarded. The pellets were resuspended in the remaining 1 mL, transferred to microcentrifuge tubes containing 7 μL ^3H-mannitol (740 GBq/mmol, American Radiolabeled Chemicals Inc., St. Louis, MO) as an extracellular marker, and then centrifuged (11,000g × 30s). The supernatant was removed and frozen at −80 °C (extracellular samples) and the tubes were centrifuged again, and any remaining medium was carefully removed. Ice-cold MeOH (80 μL) was added to the pellets which were disrupted by pipetting and stored at −80 °C (intracellular samples). When these were thawed for HPLC analysis (Section 4.12), the volume of extracellular water trapped in the pellets was determined by the scintillation counting (PerkinElmer Tri-Carb B2910TR Liquid Scintillation) of 25 μL of each extracellular and intracellular sample in 3 mL of Emulsifier-Safe™ scintillation cocktail (PerkinElmer). The extracellular volume in each intracellular sample was used to correct the intracellular drug concentration as previously described [87].
The samples were analyzed using an Agilent 1200 HPLC with a diode array absorbance detector and autosampler maintained at 4 °C (Agilent Technologies). The frozen samples were thawed, then centrifuged (11,000g × 5 min), and then extracellular samples were injected directly (typically 20 μL), while for the intracellular samples 30 μL was mixed 1:1 with αMEM and 50 μL was injected. […] All calibration curves were linear (R^2 > 0.999). The column was an Agilent ZORBAX Eclipse (XDB-C18, 5u, 2.1 × 150 mm, Agilent Technologies) with a flow rate of 0.4 mL/min. For SN30000 (2), the mobile phase was a mixture of 80% MeCN/water v/v (A), and a 45 mM formate buffer at a pH 4.5, eluting with a linear gradient of 5–100% A over 18 min. The same method was used for the BTO acids, except for 4a, where the aqueous mobile phase pH was reduced to 3.5.
Values are mean and SEM for 3 replicates. ND: Not detected.

[9] = tested on: SiHa cells; assay: IC50 assay modified for chronic hypoxia (oxia, hypoxia, anoxia); type: cell-based; settings: for IC50: Homo sapiens
Procedure: There are relatively few viable cells in tumors at O2 concentrations as low as in the above anoxic experiments. In addition, extensive changes in gene expression occur under chronic exposure to intermediate O2 concentrations (chronic hypoxia), including the expression of proteins that regulate pHi. […] Therefore, oxic and anoxic exposures were also tested in these same experiments. The 24 h adaptation to hypoxia had little effect on the subsequent growth of the cultures at either pHe value (Figure S6).
To minimize problems with poor cell attachment under chronic hypoxia, the drugs were added from a 3-fold dilution series made in a separate plate, rather than by serial dilution in the plates containing the cells. In addition, the drugs were removed after the 4 h exposure by centrifuging the plates (200g × 5 min) prior to each aspiration. The same modifications were used for the oxic drug exposures in these experiments.

[10] = pulse radiolysis, redox indicator MV^2+; cited from earlier work
[11] = set-up: method as in PMID 28848445; settings: cited from earlier work
[12] = read-out: Anoxic IC50, SiHa, pHe 6.5, 4 h, anoxic
[13] = read-out: Anoxic IC50, SiHa, pHe 7.4, 4 h, anoxic
[14] = read-out: Oxic IC50, SiHa, pHe 6.5, 4 h, oxic
[15] = read-out: Oxic IC50, SiHa, pHe 7.4, 4 h, oxic
[16] = pHe 6.5, 4 h, anoxic, read-out: Anoxic IC50
[17] = pHe 6.5, 4 h, oxic, read-out: Oxic IC50
[18] = pHe 7.4, 4 h, anoxic, read-out: Anoxic IC50
[19] = pHe 7.4, 4 h, oxic, read-out: Oxic IC50

**Q.** Which results are given for `[O-][n+]1nc(CCCN2CCOCC2)[n+]([O-])c2cc3c(cc21)CCC3` [Compound 2, SN30000, reference compound]?
**A.** IC50 ([1]; pHe 6.5, 4 h, 20% O2, read-out: Oxic IC50): 190 ± 42 µM; IC50 ([1]; pHe 6.5, 4 h, <0.01% O2, read-out: Anoxic IC50): 6.29 ± 1.79 µM; IC50 ([1]; pHe 7.4, 4 h, 20% O2, read-out: Oxic IC50): 477 ± 65 µM; IC50 ([1]; pHe 7.4, 4 h, <0.01% O2, read-out: Anoxic IC50): 5.92 ± 2.42 µM; TME ratio (oxic IC50 pHe 7.4/anoxic IC50 pHe 6.5) [1]: 75.8 ± 23.9; PCR Anoxic (IC50 at pHe 7.4/IC50 at pHe 6.5) ([1]; anoxic): 0.94± 0.47; PCR oxic (IC50 at pHe 7.4/IC50 at pHe 6.5) ([1]; oxic): 2.51 ± 0.65; ACR (oxic IC50/anoxic IC50) ([1]; pHe 6.5): 30.2 ± 10.9; ACR (oxic IC50/anoxic IC50) ([1]; pHe 7.4): 80.6 ± 34.7; IC50 [2, 12]: 5.52 ± 2.01 µM; IC50 [2, 13]: 2.87 ± 0.23 µM; IC50 [2, 14]: 253 ± 31 µM; IC50 [2, 15]: 292 ± 15 µM; TMR (overall TME ratio = oxic IC50 pHe 7.4/anoxic IC50 pHe 6.5) [2]: 53 ± 19; PCR Anoxic (IC50 at pHe 7.4/IC50 at pHe 6.5) [2]: 0.52 ± 0.19; PCR oxic (IC50 at pHe 7.4/IC50 at pHe 6.5) [2]: 1.15 ± 0.15; ACR (anoxic cytotoxicity ratio = oxic IC50/anoxic IC50) ([2]; pHe 6.5): 46 ± 18.0; ACR (anoxic cytotoxicity ratio = oxic IC50/anoxic IC50) ([2]; pHe 7.4): 101 ± 10; PCR (pH cytotoxicity ratio) ([2]; representative experiment (Figure 3), oxia and anoxia): little or no dependence on pHe; ACR (anoxia cytotoxicity ratio) ([2]; representative experiment (Figure 3), pHe 7.4 and 6.5): approximately 140; TMR (oxic IC50 pHe 7.4/anoxic IC50 pHe 6.5) [3]: 29.8 ± 5.7; IC50 [3, 16]: 8.63 ± 1.55 µM; IC50 [3, 17]: 277 ± 15 µM; IC50 [3, 18]: 4.16 ± 0.35 µM; IC50 [3, 19]: 258 ± 15 µM; PCR Anoxic (IC50 at pHe 7.4/IC50 at pHe 6.5) ([3]; anoxic): 0.48 ± 0.10; PCR oxic (IC50 at pHe 7.4/IC50 at pHe 6.5) ([3]; oxic): 0.93 ± 0.08; ACR (oxic IC50/anoxic IC50) ([3]; pHe 6.5): 32.1 ± 6.04; ACR (oxic IC50/anoxic IC50) ([3]; pHe 7.4): 62.0 ± 6.34; IC50 [4]: 2.9 to 8.6 µM; Effect of overexpression of BCRP or Pgp efflux transporters on sensitivity [5]: no effect; IC50 ratio SiHa / SiHa/POR (fold lower IC50 in POR cell line) [6]: 6.75 ± 0.20; IC50 ratio SiHa / SiHa/POR (fold lower IC50 in POR cell line) ([6]; listed as SN30000): 6.75; pKa of the radical anion [7]: 5.48 ± 0.26; Uptake (Ci/Ce) at 4 °C relative to 37 °C ([8]; SiHa cell suspensions, data not shown): minor increase; Ci ratio (Ci at pHe 6.5/Ci at pHe 7.4) ([8]; aerobic SiHa suspensions, 5 min): 1.09 ± 0.09 fold; Ci ratio (Ci at pHe 6.5/Ci at pHe 7.4) ([8]; aerobic SiHa suspensions, 60 min): 0.95 ± 0.07 fold; Ci/Ce, pHe 6.5 Obs 5 min ([8]; aerobic SiHa suspensions, pHe 6.5, 5 min): 2.75 ± 0.07; Ci/Ce, pHe 6.5 Obs 60 min ([8]; aerobic SiHa suspensions, pHe 6.5, 60 min): 2.37 ± 0.02; Ci/Ce, pHe 7.4 Obs 5 min ([8]; aerobic SiHa suspensions, pHe 7.4, 5 min): 2.48± 0.27; Ci/Ce, pHe 7.4 Obs 60 min ([8]; aerobic SiHa suspensions, pHe 7.4, 60 min): 2.49 ± 0.05; PCR (IC50 for pHe 7.4/IC50 for pHe 6.5) ([9]; 0.2% O2): 1.76 ± 0.43; HCR ([9]; 0.2% O2, both pHe values): approximately 20; PCR (IC50 for pHe 7.4/IC50 for pHe 6.5) ([9]; 20% O2): 1.95 ± 0.66; PCR (IC50 for pHe 7.4/IC50 for pHe 6.5) ([9]; <0.01% O2): 0.84 ± 0.15; IC50 ([9]; 0.2% O2 (24 h before and during 4 h exposure), pHe 6.5): 9.88 ± 2.34 µM; IC50 ([9]; 0.2% O2 (24 h before and during 4 h exposure), pHe 7.4): 17.4 ± 1.02 µM; IC50 ([9]; 4 h, 20% O2, pHe 6.5, 4 h): 207 ± 69 µM; IC50 ([9]; 4 h, 20% O2, pHe 7.4, 4 h): 404 ± 21 µM; IC50 ([9]; 4 h, <0.01% O2, pHe 6.5, 4 h): 3.07 ± 0.38 µM; IC50 ([9]; 4 h, <0.01% O2, pHe 7.4, 4 h): 2.59 ± 0.35 µM; ACR (IC50 for 20% O2/IC50 for <0.01% O2) ([9]; pHe 6.5): 67 ± 24; HCR (IC50 for 20% O2/IC50 for 0.2% O2) ([9]; pHe 6.5): 20.1 ± 8.6; ACR (IC50 for 20% O2/IC50 for <0.01% O2) ([9]; pHe 7.4): 156 ± 23; HCR (IC50 for 20% O2/IC50 for 0.2% O2) ([9]; pHe 7.4): 23.2 ± 1.8; E^0′ one-electron reduction potential [10]: −401 ± 8 [MV^2+] ^g mV

**Q.** With `Nc1n[n+]([O-])c2ccccc2[n+]1[O-]` [Compound 3, tirapazamine, reference compound] as the molecule, how does the IC50 [2, 12] read?
**A.** 2.9 ± 0.38 µM

**Q.** And the IC50 [2, 13]?
**A.** 2.81 ± 0.3 µM

**Q.** What about the IC50 [2, 14] of the same molecule?
**A.** 91 ± 21 µM

**Q.** And the IC50 [2, 15]?
**A.** 162 ± 8 µM

**Q.** And the “TMR (overall TME ratio = oxic IC50 pHe 7.4/anoxic IC50 pHe 6.5)” value [2]?
**A.** 56 ± 8

**Q.** And the “PCR Anoxic (IC50 at pHe 7.4/IC50 at pHe 6.5)” value [2]?
**A.** 0.97 ± 0.16

**Q.** And the “PCR oxic (IC50 at pHe 7.4/IC50 at pHe 6.5)” value [2]?
**A.** 1.77 ± 0.42

**Q.** And the “TMR (oxic IC50 pHe 7.4/anoxic IC50 pHe 6.5)” value [3]?
**A.** 26.2 ± 5.9

**Q.** And the IC50 [3, 16]?
**A.** 6.96 ± 1.38 µM

**Q.** And the IC50 [3, 17]?
**A.** 127 ± 14 µM

**Q.** And the IC50 [3, 18]?
**A.** 5.9 ± 0.48 µM

**Q.** And the IC50 [3, 19]?
**A.** 182 ± 20 µM

**Q.** What about the “PCR Anoxic (IC50 at pHe 7.4/IC50 at pHe 6.5)” value ([3]; anoxic) of the same molecule?
**A.** 0.85 ± 0.18

**Q.** And the “PCR oxic (IC50 at pHe 7.4/IC50 at pHe 6.5)” value ([3]; oxic)?
**A.** 1.43 ± 0.22

**Q.** And the “ACR (oxic IC50/anoxic IC50)” value ([3]; pHe 6.5)?
**A.** 18.3 ± 4.1

**Q.** And the “ACR (oxic IC50/anoxic IC50)” value ([3]; pHe 7.4)?
**A.** 30.9 ± 4.2

**Q.** What about the IC50 ([4]; SiHa and FaDu, anoxia, pHe 6.5) of the same molecule?
**A.** 2.9 to 8.6 µM

**Q.** And the “E^0′ one-electron reduction potential” value [10]?
**A.** −456 ± 8 [MV^2+] ^h mV

**Q.** With `O=C(O)CCc1nc2cc3c(cc2[n+]([O-])n1)CCC3` [Compound 15d, 3-(2-Carboxyethyl)-7,8-dihydro-6H-indeno[5,6-e][1,2,4]triazine 1-Oxide] as the molecule, how does the “Protein bound in mouse plasma” value [11] read?
**A.** > 90%
